GI50 and TGI data for 31 compounds are collected here from PubChem BioAssay (NCI).

Several values for one entry are separate records, joined by “and”; a condition that tells them apart may be missing. Equal entries are not always repeated.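 In this assay, cells in 96-well plates receive the compound at five concentrations for 48 hours. Endpoints are linearly interpolated between the surrounding concentrations. GI50: concentration for 50% inhibition of growth. At the TGI there is no net growth.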

Holding throughout (assay): DTP human tumour cell line panel, 48 h
Assay [1] has as its system HCC-2998 colon.
For assay [2], the system named is SNB-78 CNS.
Assay [3] relates to RXF 393 renal.
For assay [4], the system named is HOP-62 NSCLC.
The test system of assay [5] is NCI-H460 lung.
Assay [6] concerns M19-MEL melanoma.
Assay [7] relates to MDA-MB-231 breast.
For assay [8], the system named is PC-3 prostate.
The subject of assay [9] is MDA-MB-435.
Assay [10] concerns T-47D breast.

What is called GI50 is the concentration that inhibits growth by half. The term TGI denotes the concentration at which net growth stops. Low readings indicate more potent growth arrest, high ones less potent growth arrest. For `N.N.N.N.N.N.O=N[O-].[Br-].[Co+3].[Co+3].[OH3+].[OH3+]`, the values for the GI50 in assay [1], in assay [2] and in assay [3] were 58.5 µM, above 100 µM and above 100 µM, respectively. For the same compound, the total growth inhibition concentration (TGI) in assay [1], in assay [2] and in assay [3] was above 100 µM in each case.
As to `Cc1nn(-c2ccccc2)c(-c2ccccc2[N+](=O)[O-])c1CC#N`, the concentration for total growth inhibition (TGI) in assay [4], in [5], in [1], in [6], in [2] and in assay [3] was above 100 µM in each case.
Turning to `OC12CC/C(=N/OCc3ccccc3)CC1c1ccccc12` (stereo unspecified), the TGI in assay [4], in [5], in assay [1], in assay [6], in [2] and in assay [3] was above 100 µM in each case.
With `COc1cc(Br)c(C=Nc2cccc3ccc(OS(=O)(=O)c4cccc([N+](=O)[O-])c4)cc23)cc1OC`, the total growth inhibition concentration (TGI) in assay [4] is above 100 µM; in [5], above 100 µM; in assay [1], above 100 µM; in assay [6], above 100 µM; in [2], 72.9 µM; in assay [3], 43.5 µM.
`CN[C@@H]1C[C@H]2O[C@@](C)([C@@H]1OC)n1c3ccccc3c3c4c(c5c6ccccc6n2c5c31)C(=O)N[C@@H]4O`: the GI50 in assay [4] was 0.0401 µM; in [1], 0.0534 µM; in [9], 0.0478 µM; in assay [3] it was 0.00955 µM. Moreover, the total growth inhibition concentration (TGI) was 0.17 µM and 0.334 µM in assay [4]; 0.3 µM and 1.47 µM in [5]; 0.202 µM in [7]; 0.258 µM and 0.13 µM in assay [8]; 0.3 µM and 2.69 µM in assay [1]; 4.99 µM in [6]. For the same compound, the TGI in assay [9] was 0.3 µM and 1.88 µM; in assay [2] it was 0.225 µM; in assay [3] it was 0.0345 µM and < 0.0219 µM.
For `CC[C@@]1(O)C(=O)OCc2c1cc1n(c2=O)Cc2cc3cc(N)ccc3nc2-1`, the GI50 is 0.00135 µM in [4]; 0.00149 µM in assay [5]; 0.199 µM and 0.345 µM in assay [7]; 0.141 µM and 0.0842 µM in [8]; 0.0707 µM in [1]; 0.0476 µM in assay [10]. The concentration for 50% growth inhibition (GI50) is 0.12 µM and 0.0188 µM in [9]; 0.0463 µM and 0.212 µM in assay [2]; 0.0489 µM in assay [3]. Also, the TGI in assay [4] is 0.0157 µM and < 0.0151 µM; in assay [5] it was 0.212 µM; in [7], 3.11 µM; in assay [1] it was 0.495 µM and 1.36 µM; in assay [6] it was 0.289 µM and 0.222 µM; in [9] it was 0.663 µM and 0.133 µM.
Turning to `CC(=O)OC1[C@H]2c3cc4c(cc3CN3CCC(=C[C@@H]1O)C23)OCO4` (stereo partly specified), the TGI in assay [4], in [5], in assay [1], in assay [6], in assay [2] and in assay [3] was above 100 µM each time.
Turning to `BrC1(Br)C2/C=C\CCCCC21` (stereo unspecified), the TGI in assay [4], in assay [5], in [1], in [6], in assay [2] and in [3] was above 100 µM throughout.
Turning to `C=C(C=O)CCCC(C)[C@@H]1CCC23CC12CCC1[C@@]2(C)CCC(OC(C)=O)C(C)(C)C2CC(OC2OC(COC(C)=O)C(O)C(O)C2O)[C@]13C` (stereo partly specified), the TGI amounted to 14.3 µM in [4]; 16.1 µM in assay [5]; 13.9 µM in [1]; 3.4 µM in assay [2]; 11.7 µM in assay [3].
Regarding `C[N+]1(C)C/C(=C\c2ccncc2)C(=O)/C(=C/c2ccncc2)C1`, the TGI in assay [4], in assay [5], in [1], in assay [6], in assay [2] and in assay [3] was above 100 µM throughout.
Regarding `S=c1nc(-c2cccnc2)[nH][nH]1`, the concentration for total growth inhibition (TGI) in assay [4], in assay [5], in [1], in [2] and in assay [3] was above 100 µM in each case.
Regarding `CCOc1ccccc1NC(=O)CCc1nc(=S)[nH][nH]1`, the TGI in assay [4], in assay [5], in [1], in assay [6], in assay [2] and in assay [3] was above 100 µM in each case.
On to `COC(=O)c1nc(N)[nH]c(=O)c1CCCCCc1c(C(=O)OC)nc(N)[nH]c1=O`, for which the concentration for total growth inhibition (TGI) in assay [4], in assay [5], in assay [1], in assay [6], in assay [2] and in assay [3] was above 50 µM throughout.
As for `COC(=O)c1c(-c2ccccc2)sc(-c2cccc3ccccc23)c1C(=O)OC`, the TGI in assay [5], in [1], in [6], in [2] and in assay [3] was above 100 µM throughout.
For the compound `CCN(CC)c1ccc2c(c1)Nc1cc(=C(C#N)C#N)c3ccccc3c1=N2`, the concentration for total growth inhibition (TGI) in assay [4], in [5], in assay [1], in [6], in assay [2] and in assay [3] was above 100 µM each time.
On to `Cc1cc2c(=O)c3ccccc3[nH]c2c(C(=O)O)c1C`, for which the concentration for total growth inhibition (TGI) in assay [4], in assay [5], in assay [1], in assay [6], in [2] and in assay [3] was above 100 µM in each case.
In the case of `CN=C1SC(=Nc2ccc(N(C)C)cc2)N1C`, the total growth inhibition concentration (TGI) in [4], in assay [5], in assay [1], in assay [6] and in assay [2] was above 100 µM throughout.
Consider `O=C(OC[C@H]1O[C@@H](OC(=O)c2cc(O)c(O)c(O)c2)[C@H](OC(=O)c2cc(O)c(O)c(O)c2)[C@@H](OC(=O)c2cc(O)c(O)c(O)c2)[C@@H]1OC(=O)c1cc(O)c(O)c(O)c1)c1cc(O)c(O)c(O)c1`, for which the TGI in assay [4] is 14.4 µM; in [5] it was 24.8 µM; in assay [1], 12.3 µM; in assay [6] it was 83.2 µM; in [2], 80.3 µM; in [3] it was 31.2 µM.
For the compound `C1=CC=C2NCCOCCNC3=CC=CC=CC3=NCCOCCN=C2C=C1`, the TGI in assay [4], in [5], in [1], in [6] and in assay [2] was above 100 µM each time.
With `COc1ccc(/C=C2\C(=O)N(C(=O)Cc3ccccc3)N=C2C)cc1OC`, the concentration for total growth inhibition (TGI) in assay [4], in assay [1], in assay [6] and in assay [2] was above 100 µM in each case.
Take `CC(=O)O[C@@H]1C2C(=O)OC(=O)C2C2CCC[C@]23O[C@H]13` (stereo partly specified): the concentration for total growth inhibition (TGI) in [4], in [5], in [1], in assay [6], in [2] and in assay [3] was above 100 µM in each case.
On to `Cc1c2cc[n+](C)cc2c(C)c2c1[nH]c1ccc(O)c(OCC(F)(F)F)c12`, for which the TGI in assay [4] was 5.28 µM; in assay [5], 48.6 µM; in assay [1] it was 46.4 µM; in assay [6], 11.8 µM; in assay [2], 4.96 µM.
With `O=[N+]([O-])c1ccc2c(c1)[O][Sn]([I])([I])[O]2`, the GI50 in [4] was above 100 µM; in assay [5], above 100 µM; in [1] it was above 100 µM; in [6] it was 85.3 µM; in assay [2] it was above 100 µM; in assay [3], 52.1 µM. For the same compound, the concentration for total growth inhibition (TGI) in assay [4], in assay [5], in assay [1], in assay [6], in [2] and in assay [3] was above 100 µM in each case.
With `O=c1ccc(=O)c2c(=O)c3ccccc3c(=O)c1=2`, the TGI in [4] was above 100 µM; in [5] it was above 100 µM; in [1], above 100 µM; in [6], 36.8 µM; in assay [2] it was above 100 µM; in assay [3], above 100 µM.
With `O=C1CCC(O)=C1O`, the TGI in assay [4], in assay [5], in [1], in assay [6] and in assay [3] was above 100 µM throughout.
As to `CC1(C)C2CCC3(C2)CS(=O)(=O)N2OC231` (stereo unspecified), the TGI was above 100 µM in assay [4]; 37.1 µM in assay [5]; above 100 µM in assay [1]; 29.8 µM in [6]; 47.2 µM in assay [2].
In the case of `CCOC(=O)[C@H]1Nc2ccc(OC)cc2C2c3ccccc3CC21` (stereo partly specified), the TGI in [4], in assay [5], in assay [1], in assay [6], in [2] and in assay [3] was above 100 µM each time.
Take `Cc1c(Cl)cccc1NC(=O)CC1C(=O)Nc2ccccc2S1(=O)=O` (stereo unspecified): the concentration for total growth inhibition (TGI) in assay [5] amounted to 30 µM; in assay [1], 33.4 µM; in [6], 55.3 µM; in assay [2], 45.5 µM; in assay [3], 28.9 µM.
Turning to `COC(=O)C1=C(CS(=O)c2ccccc2[N+](=O)[O-])ON(C)C1c1ccccc1` (stereo unspecified), the concentration for total growth inhibition (TGI) in assay [4] was above 100 µM; in assay [5], above 100 µM; in assay [1], 82.9 µM; in assay [6], above 100 µM; in assay [2], above 100 µM; in [3] it was 71.1 µM.
Turning to `Nc1nc(CCC(=O)Nc2cccc(C(F)(F)F)c2)cc(-c2ccc3ccccc3c2)n1`, the concentration for total growth inhibition (TGI) in [4], in [5], in assay [1], in assay [6], in assay [2] and in assay [3] was above 100 µM in each case.
Turning to `O=Cc1ccc(-c2cccs2)s1`, the TGI in [4] was above 100 µM; in [5] it was above 92.4 µM; in assay [7], above 100 µM; in assay [8] it was above 100 µM; in [1], above 100 µM; in [6], above 100 µM. For the same compound, the TGI in assay [10] was above 100 µM; in assay [9] it was above 100 µM; in assay [2], above 100 µM; in assay [3], 65.3 µM.
